Measured values published in patent publication US20180303853A1, “COMPOSITIONS AND METHODS FOR TREATING BACTERIAL INFECTIONS USING CEFTAROLINE” (priority 2017, published 2018).

Assays:
[1] = tested on: Community-Acquired Bacterial Pneumonia (CABP); experiment: Two Phase 3 studies in CABP, clinical cure at TOC (single and integrated/combined); type: in vivo, human; conditions: TOC; for Combined clinical cure rate: combined data of the two CAP studies; for Weighted treatment difference (95% CI), ceftaroline versus ceftriaxone: combined data
Method: In both treatment groups of CABP Study 1, two doses of oral clarithromycin (500 mg q12 h), were administered as adjunctive therapy starting on Study Day 1. No adjunctive macrolide therapy was used in CABP Study 2. Patients with new or progressive pulmonary infiltrate(s) on chest radiography and clinical signs and symptoms consistent with CABP with the need for hospitalization and IV therapy were enrolled in the studies. Treatment duration was 5 to 7 days. A switch to oral therapy was not allowed. The Modified Intent-to-Treat Efficacy (MITTE) population, included all patients who received any amount of study drug according to their randomized, treatment group and were in PORT (Pneumonia Outcomes Research Team) Risk Class III or IV.
The primary efficacy endpoint was the clinical response at the Test of Cure (TOC) visit in the co-primary Ce and MITTE populations (Table 4).

[2] = human, in vivo
Method: (§2) Study-Drug: Ceftaroline fosamil was administered in two consecutive 300 mg intravenous (IV) infusions over 30 minutes, every 12 hours (q12h). The 600-mg dose of ceftaroline fosamil infused over 60 minutes was split into two infusions in order to maintain the blind. For subjects with moderate renal impairment (30 ml/min<CrCl≤50 ml/min), as estimated by the Cockroft-Gault formula, unblinded pharmacy staff or unblinded study staff could adjust the dose of ceftaroline fosamil to two consecutive 200 mg infusions and readjust dose to two 300 mg infusions when renal function improved (CrCl>50 mL/min). The duration of treatment was between 5 to 7 days.
(§3) All subjects who received any amount of study drug were included in the safety analysis. Safety measures included monitoring for adverse events (AE) up to TOC and serious adverse events (SAE) through LFU; recording vital signs, physical examination, electrocardiogram (ECG), and clinical laboratory findings (clinical chemistry, hematology, and urinalysis), at prespecified times throughout the study.

[3] = Example 4 CAP study, safety
Method: as §2, §3

[4] = human, in vivo; remark: listed apart in the source
[5] = Excretion after single IV dose of radiolabeled ceftaroline fosamil in healthy male adults; type: in vivo, human; conditions: in vivo
Method: Following administration of a single 600 mg IV dose of radiolabeled ceftaroline fosamil to healthy male adults, approximately 87% of radioactivity was recovered in urine and 6% in feces. The majority of the radioactivity (˜90%) was recovered within 48 hours. Of the radioactivity recovered in urine, approximately 64% was excreted as ceftaroline and approximately 2% as ceftaroline-M-1.

MDRSP = experiment: Example 4 CAP study, outcome by baseline pathogen; type: in vivo, S. pneumoniae
Excerpt: (§1) Per-pathogen clinical cure rate and favorable microbiological outcome rate at TOC in the mMITTE and ME Populations;

S. aureus = experiment: Example 5 CAP study, outcome by baseline pathogen; type: in vivo
Excerpt: as §1

H. influenzae = experiment: Example 5 CAP study, outcome by baseline pathogen; type: in vivo
Excerpt: as §1

H. parainfluenzae = experiment: Example 5 CAP study, outcome by baseline pathogen; type: in vivo
Excerpt: as §1

E. coli = experiment: Example 5 CAP study, outcome by baseline pathogen; type: in vivo
Excerpt: as §1

S. pneumoniae = experiment: Example 5 CAP study, outcome by baseline pathogen; type: in vivo
Excerpt: as §1

clinical = conditions: human, in vivo
[6] = tested on: complicated skin and skin structure infections (cSSSI); experiment: Two Phase 3 studies in cSSSI, clinical cure at TOC; type: in vivo, human; conditions: co-primary CE and MITT populations
Method: A total of 1396 adults with clinically documented complicated skin and skin structure infections (cSSSI) were enrolled in two randomized, multi-center, multinational, double-blind, studies comparing 600 mg ceftaroline fosamil administered intravenously over 1 hour every 12 hours to vancomycin plus aztreonam [1 g vancomycin administered intravenously over 1 hour followed by 1 g aztreonam administered intravenously over 1 hour every 12 hours]. Patients with cSSSI (deep/extensive cellulitis, a major abscess, a wound infection [surgical or traumatic], infected insect bites, burns or ulcers, lower extremity infection in patients with diabetes mellitus or peripheral vascular disease), were enrolled in the studies. Treatment duration was […] days. A switch to oral therapy was not allowed. The Modified Intent-to-Treat (MITT) population included all patients who received any amount of study drug according to their randomized treatment group.
The primary efficacy endpoint was clinical response at the Test of Cure (TOC) visit in the co-primary CE and MITT populations (Table 2). […] In a subgroup analysis (CE population), the comparative clinical cure rates between the ceftaroline group and the vancomycin plus aztreonam group were not affected by age, gender, race, ethnicity, or weight.

[7] = tested on: community-acquired pneumonia (CAP); experiment: Example 4 Phase 3 study, ceftaroline vs ceftriaxone in CAP, efficacy; type: in vivo, human
Excerpt: The secondary objectives of the study were to evaluate the following: clinical response at end-of-therapy (EOT); the microbiological favorable outcome rate at TOC; the overall (clinical and radiographic) success rate at TOC; the clinical and microbiological response by pathogen at TOC; clinical relapse at late follow-up (LFU); microbiological reinfection/recurrence at LFU; and safety.
The following criteria were used for evaluation: The primary efficacy outcome measures were the pet-subject clinical cure rate at test-of-cure (TOC) in the CE and MITTE Populations Subjects were considered clinically cured at TOC if they had total resolution of all signs and symptoms of the baseline infection, or improvement of the infection such that no further antimicrobial therapy was necessary.
Non-inferiority was concluded if the lower limit of the 95% CI was higher than −10%.

## CCO/N=C(\C(=O)N[C@@H]1C(=O)N2C(C(=O)[O-])=C(Sc3nc(-c4cc[n+](C)cc4)cs3)CS[C@H]12)c1nsc(N)n1 [Ceftaroline, ceftaroline]
[1]; CE
  Combined clinical cure rate: 387/459 (84.3) %
  Weighted treatment difference (95% CI), ceftaroline versus ceftriaxone: 6.7 (1.6, 11.8) %
[1]; ME
  Combined clinical cure rate: 131/154 (85.1) %
  Weighted treatment difference (95% CI), ceftaroline versus ceftriaxone: 9.7 (0.7, 18.8) %
[1]; MITTE
  Combined clinical cure rate: 479/580 (82.6) %
  Weighted treatment difference (95% CI), ceftaroline versus ceftriaxone: 6.0 (1.4, 10.7) %
[1]; mMITTE
  Combined clinical cure rate: 138/165 (83.6) %
  Weighted treatment difference (95% CI), ceftaroline versus ceftriaxone: 8.7 (−0.0, 17.4) %
[1]; CE, listed as ceftaroline
  Weighted treatment difference (95% CI), ceftaroline versus ceftriaxone: 6.7%
[1]; ME, listed as ceftaroline
  Weighted treatment difference (95% CI), ceftaroline versus ceftriaxone: 9.7%
[1]; mMITTE, listed as ceftaroline
  Weighted treatment difference (95% CI), ceftaroline versus ceftriaxone: 8.7%
[2]
  Adverse event: COPD: 8 (2.5) %
  Adverse event: Diarrhea: 12 (3.8) %
  Adverse event: Head ache: 11 (3.5) %
  Adverse event: Pleural effusion: 4 (1.3) %
  Adverse event: Pneumonia: 8 (2.5) %
  study-drug-related TEAE: alanine aminotransferase increased: 0.3%
  study-drug-related TEAE: blood creatinine phosphokinase increased: 1.3%
  study-drug-related TEAE: heartache: 0.6%
  subjects with any study-drug-related TEAEs: 12.4%
[3]
  hemolytic anemia: No evidence of hemolytic anemia
  incidence of deaths: 2.9%
[4]
  change in exposure (Cmax and AUC) with concomitant CYP450 inhibitors, inducers, substrates: did nor identify any clinically relevant increases
[5]
  route of elimination: primarily eliminated by the kidneys
MDRSP; Example 4, ME
  Favorable Microbiological Outcome at TOC by Baseline Pathogen: 2/2 (100.0)
MDRSP; Example 4, ME Population
  Clinical Cure Rate at the TOC Visit by Baseline Pathogen: 2/2 (100.0)
S. aureus; Example 5, ME
  Favorable Microbiological Outcome at TOC by Baseline Pathogen: 8/10 (80.0)
S. aureus; Example 5, ME Population
  Clinical Cure Rate at the TOC Visit by Baseline Pathogen: 8/10 (80.0)
H. influenzae; Example 5, ME
  Favorable Microbiological Outcome at TOC by Baseline Pathogen: 2/3 (66.7)
H. influenzae; Example 5, ME Population
  Clinical Cure Rate at the TOC Visit by Baseline Pathogen: 2/3 (66.7)
H. parainfluenzae; Example 5, ME
  Favorable Microbiological Outcome at TOC by Baseline Pathogen: 7/7 (100.0)
H. parainfluenzae; Example 5, ME Population
  Clinical Cure Rate at the TOC Visit by Baseline Pathogen: 7/7 (100.0)
E. coli; Example 5, ME
  Favorable Microbiological Outcome at TOC by Baseline Pathogen: 8/8 (100.0)
E. coli; Example 5, ME Population
  Clinical Cure Rate at the TOC Visit by Baseline Pathogen: 8/8 (100.0)
S. pneumoniae; Example 5, ME
  Favorable Microbiological Outcome at TOC by Baseline Pathogen: 21/24 (87.5)
S. pneumoniae; Example 5, ME Population
  Clinical Cure Rate at the TOC Visit by Baseline Pathogen: 21/24 (87.5)
clinical; CL/Fm
  clearance: 160 mL/min
clinical; mean plasma terminal elimination half-life
  half-life: ~2.5 h
clinical; t1/2
  half-life: 1.6 h
[6]
  clinical response at TOC, comparison with comparator: non-inferior to vancomycin plus aztreonam
[7]; Example 4, CE
  Difference (ceftaroline minus ceftriaxone), Clinical Cure Rate at EOT: 6.0%
  Difference (ceftaroline minus ceftriaxone), Clinical Success at TOC: 4.9%
[7]; Example 4, CE population
  Clinical Success at the TOC Visit: 193 (82.1) %
  Per-subject Clinical Cure Rate at the EOT Visit: 202 (86.0) %
[7]; Example 4, ME
  Difference (ceftaroline minus ceftriaxone), Favorable Microbiological Outcome at TOC: 1.8%
[7]; Example 4, ME population
  Favorable Microbiological Outcome at the TOC Visit: 72 (84.7) %
[7]; Example 4, MITTE
  Difference (ceftaroline minus ceftriaxone), Clinical Cure Rate at EOT: 7.4%
  Difference (ceftaroline minus ceftriaxone), Clinical Success at TOC: 5.9%
[7]; Example 4, MITTE population
  Clinical Success at the TOC Visit: 235 (81.3) %
  Per-subject Clinical Cure Rate at the EOT Visit: 249 (86.2) %
[7]; Example 4, mMITTE
  Difference (ceftaroline minus ceftriaxone), Favorable Microbiological Outcome at TOC: 0.4%
[7]; Example 4, mMITTE population
  Favorable Microbiological Outcome at the TOC Visit: 74 (82.2) %
